The values below come from EP4755880A1, “SUBSTITUTED NITROGEN-CONTAINING BICYCLIC COMPOUND AND USE THEREOF” (Sunshine Lake Pharma Co., Ltd., priority 2023, dated 2025).

As a reminder, the IC50 is the concentration at which inhibition is half-maximal. Low values mean greater potency, high ones weaker potency. The AUC(0-t) is the area under the concentration-time curve up to a stated or last time point. A low value points to low exposure. For orientation: Cmax means the maximum level reached in the sampled fluid or tissue. For orientation: half-life means the time needed for the level to fall by half in the phase considered. A low value points to fast loss.

Series [1] deals with PARP1 (Homo sapiens, UniProt P09874). Description: Inhibition of PARP1 enzyme activity (ELISA, chemiluminescence). The class given is biochemical. The conditions noted are these: for IC50: ELISA, histone-coated plate, NAD+, 60 min at 25 °C; for Selectivity PARP2/PARP1: ratio of PARP2 IC50 to PARP1 IC50.
Chain of PARP1 (P09874 whole entry): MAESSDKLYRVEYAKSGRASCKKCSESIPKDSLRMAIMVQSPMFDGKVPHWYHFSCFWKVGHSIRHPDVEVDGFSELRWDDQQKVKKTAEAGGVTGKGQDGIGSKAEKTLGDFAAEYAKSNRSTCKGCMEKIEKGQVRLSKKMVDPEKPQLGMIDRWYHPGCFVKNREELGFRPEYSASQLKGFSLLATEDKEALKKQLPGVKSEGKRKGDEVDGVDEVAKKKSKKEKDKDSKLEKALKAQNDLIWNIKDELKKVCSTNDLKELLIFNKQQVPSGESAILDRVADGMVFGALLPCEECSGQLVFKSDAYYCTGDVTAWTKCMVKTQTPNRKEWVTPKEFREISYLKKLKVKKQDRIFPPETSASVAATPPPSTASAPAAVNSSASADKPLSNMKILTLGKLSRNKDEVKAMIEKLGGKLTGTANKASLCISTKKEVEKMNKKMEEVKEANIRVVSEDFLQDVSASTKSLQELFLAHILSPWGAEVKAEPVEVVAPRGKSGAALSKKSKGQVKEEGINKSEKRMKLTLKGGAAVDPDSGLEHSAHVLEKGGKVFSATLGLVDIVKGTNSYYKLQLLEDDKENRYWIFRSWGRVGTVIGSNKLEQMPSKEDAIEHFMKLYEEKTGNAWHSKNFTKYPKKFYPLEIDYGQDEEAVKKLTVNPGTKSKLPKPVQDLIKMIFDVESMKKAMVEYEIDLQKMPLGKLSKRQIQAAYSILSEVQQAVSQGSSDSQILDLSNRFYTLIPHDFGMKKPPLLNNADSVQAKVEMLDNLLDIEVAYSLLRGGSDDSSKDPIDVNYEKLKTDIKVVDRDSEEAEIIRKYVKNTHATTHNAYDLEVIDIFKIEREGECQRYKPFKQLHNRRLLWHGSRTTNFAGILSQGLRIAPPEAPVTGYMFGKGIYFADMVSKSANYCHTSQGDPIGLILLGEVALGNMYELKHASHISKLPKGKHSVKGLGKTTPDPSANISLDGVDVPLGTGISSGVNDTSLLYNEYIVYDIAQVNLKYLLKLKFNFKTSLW
Method: (§1) Experimental Objective: To evaluate the inhibitory effect of the compounds of the present invention on the enzyme activities of PARP1 and PARP2 using ELISA.
(§2) • 1. histone-coated 384-well plates was prepared: 25 µL of histone solution was added to each well and incubated overnight at 4 °C. • 2. PBST buffer, blocking buffer (PBS buffer with 5% BSA and 0.05% Tween-20 added) and detection buffer (20 mM HEPES pH 7.5 + 100 mM NaCl + 2 mM DTT + 0.002% Tween-20 + 0.1% BSA) were prepared. • 3. The histone-coated 3 84-well plate was washed three times with PBST buffer, blocked at room temperature with 50 µL blocking buffer for 1 hour, and then washed three times with PBST buffer. • 4. Test compounds were prepared as 2000-fold stock solutions in DMSO. 50 nL of the stock solution was mixed with 19.95 µL detection buffer, and 5 µL of the gradient-diluted test compound was transferred to each well. • 5. Enzymatic reaction (PARP1): PARP1 & DNA mix was pre-incubated at 25 °C for 10 minutes. 10 µL of the PARP1 & DNA mix was added to each well and incubated with the test compound at room temperature for 10 minutes. […] Finally, the 384-well plate was washed three times with PBST buffer. Enzymatic reaction (PARP2): PARP2 was pre-incubated at 25 °C for 10 minutes. 10 µL of PARP2 was added to each well and incubated with the test compound at room temperature for 10 minutes. […] Finally, the 384-well plate was washed three times with PBST buffer. • 6. Detection (PARP1): 20 µL of anti-Poly/Mono-ADP Ribose Rabbit mAb was added and incubated at room temperature for 1.5 hours, followed by three washes of the 384-well plate with PBST buffer. Then, 20 µL of diluted anti-rabbit IgG, HRP-linked Antibody (diluted 1:2000 in blocking buffer) was added and incubated at room temperature for 1 hour. After washing the plate three times with PBST buffer, 25 µL of a 1:1 mixture of Femto-ECL Substrate A and Femto-ECL Substrate B was added. Detection (PARP2): 25 µL of Strep-HRP was added and incubated at room temperature for 1 hour, followed by three washes of the 384-well plate with PBS buffer. Then, 25 µL of a 1:1 mixture of Femto-ECL Substrate A and Femto-ECL Substrate B was added. • 7. Chemiluminescence intensity was measured using an Envision multimode microplate reader. • 8. Data Processing
(§3) The inhibition rate was calculated in Excel using formula (1). inh% = (Max−Signal)/(Max−Min)*100 [formula]
(§4) The IC50 value was obtained by fitting the data in XL-Fit using formula (2). Y = bottom + (top−bottom)/(1+(IC50/X)*HillSlope); [formula] wherein Y is the inhibition percentage and X is the compound concentration.
For series [2], the system named is DLD-1 BRCA2(-/-) cells. Briefly: Inhibition of proliferation of DLD-1 BRCA2(-/-) cells (CTG method). It counts as cell-based. The conditions noted are these: Homo sapiens, DLD-1, 168 h; 7 days incubation, CellTiter-Glo. How it is done: • 1. Cell Pretreatment: DLD-1 BRCA2(-/-) cells were cultured in growth medium 1640 + 10% FBS (fetal bovine serum) + 1% Penicillin-Streptomycin. Cells in the logarithmic growth phase were digested with trypsin-EDTA, centrifuged, and resuspended. DLD-1 BRCA2(-/-) cells were seeded at 1,000 cells/well in sterile 96-well opaque plates, 75 µl per well. After seeding, the cell culture plates were incubated overnight at 37 °C with 5% CO2 before adhesion, followed by treatment with the test compounds. • 2. DLD-1 BRCA2(-/-) Cell Drug Treatment: The test compound was prepared as a 10 mM stock solution using DMSO. The test compound was then diluted to a 4× working solution using growth medium (starting at 40 µM, with 9 4-fold dilutions). 25 µl of 4× working solution was added to each well to achieve final concentrations of 10000, 2500, 625, 156, 39, 9.7, 2.4, 0.61, and 0.152 nM, respectively. Blank control wells containing the same DMSO concentration were also included, with three replicates for each concentration. After adding the test compound, the cells were incubated at 37 °C with 5% CO2 for 7 days. • 3. After incubation, 100 µl of CellTiter-Glo® Reagent was added to each well, and […] intensity was measured. A curve was fitted using GraphPad software, and the IC50 value for cell proliferation inhibition was calculated.
(In ATP-based viability assays light output follows the ATP content of the culture.)

In series [3] the target is PARP2 (Homo sapiens, UniProt Q9UGN5). Description: biochemical.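 Also: PARP2 enzyme ELISA on histone-coated plates, Strep-HRP detection with chemiluminescence read-out, 10 min compound preincubation with enzyme, inhibition scaled between Max and Min signal controls.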
Chain of PARP2 (Q9UGN5 whole entry): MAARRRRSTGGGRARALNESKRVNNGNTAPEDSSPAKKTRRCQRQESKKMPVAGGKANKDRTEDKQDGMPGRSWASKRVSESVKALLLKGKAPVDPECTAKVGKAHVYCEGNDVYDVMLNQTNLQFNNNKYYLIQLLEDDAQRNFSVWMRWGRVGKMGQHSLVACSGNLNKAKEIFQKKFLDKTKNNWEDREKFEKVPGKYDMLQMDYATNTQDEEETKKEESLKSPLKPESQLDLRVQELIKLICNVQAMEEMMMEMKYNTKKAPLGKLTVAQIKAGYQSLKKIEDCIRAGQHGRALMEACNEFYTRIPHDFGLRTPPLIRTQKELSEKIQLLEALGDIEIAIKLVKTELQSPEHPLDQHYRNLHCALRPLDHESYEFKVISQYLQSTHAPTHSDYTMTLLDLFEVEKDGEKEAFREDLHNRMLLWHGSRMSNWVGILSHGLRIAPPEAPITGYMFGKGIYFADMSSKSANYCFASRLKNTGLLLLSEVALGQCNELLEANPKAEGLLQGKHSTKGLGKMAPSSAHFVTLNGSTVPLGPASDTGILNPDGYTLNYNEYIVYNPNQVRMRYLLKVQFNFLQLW
Method: as §1, §2, §3, §4
Series [4] in a line: Pharmacokinetics in mice after intravenous injection or gavage. The conditions noted are these: BALB/c, mouse, plasma.
Method: The compounds of the present invention were administered to test animals in the form of 5% DMSO + 30% PEG400 + 65% physiological saline, 10% DMSO + 10% Kolliphor HS15 + 80% Saline, 10% DMSO + 89% (25% SBE-B-CD) + (2% HCl), 20% PEG400 + 80% sterile water for injection, or 10% DMA+ 10% HS15 + 30% PEG400 + 50% sterile aqueous solution for injection. Animals were fasted for 12 hours before administration but had free access to water. For the intravenous administration group, the dose was 1 mg/kg. Blood samples (approximately 0.15 mL) were collected intravenously at the following time points after administration: 0.083, 0.25, 0.5, 1.0, 2.0, 4.0, 6.0, 8.0 and 24 h (dogs) or 0.083, 0.25, 0.5, 1.0, 2.0, 5.0, 7.0 and 24 h (mice and rats) or 0.083, 0.25, 0.5, 1.0, 2.0, 6.0, 8.0 and 24 h (monkeys). EDTA-K2 was pre-added to the blood collection tube as an anticoagulant. The blood samples were centrifuged at 12,000 rpm for 2 minutes, and plasma was collected and stored at -20 °C or - 70 °C. For the gavage administration group, the dosage was 1 mg/kg (mice, dogs, and monkeys) or 5 mg/kg (rats). After administration, venous blood samples (approximately 0.15 mL) were collected at the following time points: 0.25, 0.5, 1.0, 2.0, 4.0, 6.0, 8.0, and 24 h (dogs) or 0.25, 0.5, 1.0, 2.0, 5.0, 7.0, and 24 h (mice and rats) or 0.25, 0.5, 1.0, 2.0, 6.0, 8.0, and 24 h (monkeys). EDTA-K2 was pre-added to the blood collection tube as an anticoagulant. The blood samples were centrifuged at 12,000 rpm for 2 minutes, and plasma was collected and stored at -20 °C or -70 °C.
The collected plasma samples were processed (frozen plasma was thawed at room temperature, vortexed for 15 s to mix, 10-20 µL of plasma was taken, 120-150 µL of acetonitrile solution containing internal standard was added, vortexed for 5 min to mix, centrifuged at 4,000 rpm for 5 min, 100 µL of supernatant was taken, and 120-150 Ml/water (v/v = 1/1) was added and mixed). The concentration of compounds in the plasma was then analyzed by LC-MS/MS.

For the compound `CNC(=O)c1ccc(N2CCN(Cc3cc(OC(F)F)c4nc(C)c(=O)[nH]c4c3F)CC2)c(F)n1` [Example 14, 5-(4-((8-(difluoromethoxy)-5-fluoro-2-methyl-3-oxo-3,4-dihydroquinoxalin-6-yl)methyl)piperazin-1-yl)-6-fluoro-N-methylpicolinamide], the figures for the 50% inhibitory concentration (IC50) in series [1], in series [2] and in series [3] were 27.7 nM, 0.0093 µM and 9.66 µM, respectively. Besides, the “Selectivity PARP2/PARP1” value in series [1] stood at 348.3. The AUC(0-t) in series [4] (iv, 2 mg/kg) stood at 4680 ng·h/mL; in series [4] (po, 5 mg/kg) it was 16200 ng·h/mL. Also, the Cmax in series [4] (iv, 2 mg/kg) was 2080 ng/mL; in series [4] (po, 5 mg/kg), 3830 ng/mL. Besides, the half-life in series [4] (iv, 2 mg/kg) is 3.3 h; in series [4] (po, 5 mg/kg), 3.3 h.

On to `CNC(=O)c1ccc(N2CCN(Cc3cc(C#CC4CC4)c4nc(C)c(=O)[nH]c4c3F)CC2)c(F)n1` [Example 22, 5-(4-((8-(cyclopropylethynyl)-5-fluoro-2-methyl-3-oxo-3,4-dihydroquinoxalin-6-yl)methyl)piperazin-1-yl)-6-fluoro-N-methylpicolinamide], for which the half-inhibitory concentration (IC50) in series [1] was 5.5 nM; in series [2], 0.0318 µM; in series [3] it was more than 10 µM. The “Selectivity PARP2/PARP1” value in series [1] is listed as 1813.7.

In series [2], `CC#Cc1cc(CN2CCN(c3ccc(C(=O)NC)nc3F)CC2)c(F)c2[nH]c(=O)c(C3CC3)nc12` [Example 48, 5-(4-((2-cyclopropyl-5-fluoro-3-oxo-8-(prop-1-yn-1-yl)-3,4-dihydroquinoxalin-6-yl)methyl)piperazin-1-yl)-6-fluoro-N-methylpicolinamide] came in with a 50% inhibitory concentration (IC50) of 0.0236 µM.

In the case of `CNC(=O)c1ccc(C2=CCN(Cc3cc(OC(F)F)c4nc(C)c(=O)[nH]c4c3)CC2)c(C)n1` [Example 58, 1'-((8-(difluoromethoxy)-2-methyl-3-oxo-3,4-dihydroquinoxalin-6-yl)methyl)-N,2-dimethyl-1',2',3',6'-tetrahydro-[3,4'-bipyridine]-6-carboxamide], the 50% inhibitory concentration (IC50) in series [1] turned out to be 1.1 nM; in series [2], 0.0136 µM; in series [3] it was 2.48 µM. For the same compound, in series [1], the “Selectivity PARP2/PARP1” value was 2192.4.

Turning to `CNC(=O)c1ccc(N2CCN(Cc3cc(OC(F)(F)F)c4nc(C)c(=O)[nH]c4c3)CC2)c(C)n1` [Example 64, N,6-dimethyl-5-(4-((2-methyl-3-oxo-8-(trifluoromethoxy)-3,4-dihydroquinoxalin-6-yl)methyl)piperazin-1-yl)picolinamide], the concentration for half-maximal inhibition (IC50) in series [1] is 3.6 nM; in series [2], 0.0098 µM; in series [3] it was 0.169 µM. In series [1], the “Selectivity PARP2/PARP1” value turned out to be 46.9.

As to `CCONC(=O)c1ccc(N2CCN(Cc3cc(OC(F)F)c4nc(C)c(=O)[nH]c4c3)CC2)c(F)n1` [Example 65, 5-(4-((8-(difluoromethoxy)-2-methyl-3-oxo-3,4-dihydroquinoxalin-6-yl)methyl)piperazin-1-yl)-N-ethoxy-6-fluoropicolinamide], the concentration for half-maximal inhibition (IC50) stood at 1.9 nM in series [1], 0.00427 µM in series [2] and 0.08 µM in series [3]. Also, in series [1], the “Selectivity PARP2/PARP1” value came out at 42.1.

As to `CCNNC(=O)c1ccc(N2CCN(Cc3cc(OC(F)F)c4nc(C)c(=O)[nH]c4c3)CC2)c(F)n1` [Example 66, 5-(4-((8-(difluoromethoxy)-2-methyl-3-oxo-3,4-dihydroquinoxalin-6-yl)methyl)piperazin-1-yl)-N'-ethyl-6-fluoropicolinohydrazide], the figures for the IC50 in series [1], in series [2] and in series [3] were 2.4 nM, 0.00702 µM and 0.143 µM, respectively. In addition, the “Selectivity PARP2/PARP1” value in series [1] stood at 59.6.

Take `CNC(=O)c1ccc(N2CCN(Cc3cc(-c4ccc(OC)cc4)c4nc(C)c(=O)[nH]c4c3)CC2)c(F)n1` [Example 69, 6-fluoro-5-(4-((8-(4-methoxyphenyl)-2-methyl-3-oxo-3,4-dihydroquinoxalin-6-yl)methyl)piperazin-1-yl)-N-methylpyridine amide]: the IC50 in series [1] was found to be 3.2 nM; in series [2], 0.0326 µM; in series [3], 8.82 µM. The “Selectivity PARP2/PARP1” value in series [1] is 2751.7.
